Source: patent US12448368B2, “Indole compounds as androgen receptor modulators” (NIDO BIOSCIENCES, INC., priority 2020, dated 2025)
pIC50: −log10 of the molar value.

Biological target: T1, androgen receptor (AR) (Homo sapiens, UniProt P10275, T878A)
T1 construct: LNCaP cells expressing ARR2PB-FireflyLuc and CMV-RenillaLuc; endogenous in cells; host or cells: LNCaP cells carrying ARR2PB-FireflyLuc and CMV-RenillaLuc reporters
T1 sequence (P10275 1-920 T878A): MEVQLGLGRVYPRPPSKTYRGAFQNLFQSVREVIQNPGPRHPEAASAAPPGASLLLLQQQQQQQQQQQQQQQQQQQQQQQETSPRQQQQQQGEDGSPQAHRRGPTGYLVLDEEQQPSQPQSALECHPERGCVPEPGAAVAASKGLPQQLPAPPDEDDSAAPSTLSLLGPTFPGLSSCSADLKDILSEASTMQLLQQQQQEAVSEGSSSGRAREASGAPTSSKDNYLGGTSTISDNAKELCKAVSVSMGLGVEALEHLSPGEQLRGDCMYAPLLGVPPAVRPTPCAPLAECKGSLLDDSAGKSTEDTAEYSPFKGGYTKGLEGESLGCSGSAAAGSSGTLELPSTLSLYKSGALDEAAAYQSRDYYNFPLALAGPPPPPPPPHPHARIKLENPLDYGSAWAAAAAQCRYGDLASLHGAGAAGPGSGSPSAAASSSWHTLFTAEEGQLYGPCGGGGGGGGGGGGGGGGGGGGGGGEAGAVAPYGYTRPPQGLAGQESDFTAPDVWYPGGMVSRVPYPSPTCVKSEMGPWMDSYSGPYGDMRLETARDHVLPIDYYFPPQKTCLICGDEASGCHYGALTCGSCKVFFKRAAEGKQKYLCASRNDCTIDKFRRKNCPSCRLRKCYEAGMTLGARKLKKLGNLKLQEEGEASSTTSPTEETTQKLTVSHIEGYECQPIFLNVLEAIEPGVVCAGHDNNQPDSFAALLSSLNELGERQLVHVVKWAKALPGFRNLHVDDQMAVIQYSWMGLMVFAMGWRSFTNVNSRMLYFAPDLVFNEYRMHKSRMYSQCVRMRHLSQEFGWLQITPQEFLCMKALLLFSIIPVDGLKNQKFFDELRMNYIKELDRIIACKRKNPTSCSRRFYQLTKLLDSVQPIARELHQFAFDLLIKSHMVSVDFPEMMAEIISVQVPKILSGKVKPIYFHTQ
Experiment: AR reporter assay in LNCaP cells expressing ARR2PB-FireflyLuc and CMV-RenillaLuc, antagonist mode (% remaining activity, IC50)
Assay type: cell-based
Settings: 48 h at 37° C., class symbols A-D, read-out: IC50
Procedure: LNCaP cells expressing ARR2PB-FireflyLuc and CMV-RenillaLuc were treated with indicated concentrations of test compounds, enzalutamide (negative control), or DHT (positive control)+/−0.5 nM DHT for 48 h at 37° C. […] Remaining activity (antagonist mode) was calculated as % Remaining Activity=100×[(Readsample−LCave)/(HCave−LCave)] where HC is cells treated with 0.5 nM DHT only and LC is cells treated with 10 uM enzalutamide+0.5 nM DHT. Activation (agonist mode) was calculated as % Activation=100×[(ReadSample−LCave)/(HCave−LCave)] where HC is cells treated with 1 uM DHT and LC is cells treated with DMSO. Dose response curves and IC50 values were calculated using non-linear regression analysis in XLfit.
The designation “A” indicates an IC50 value of >10 μM, “B” indicates an IC50 value between 1 μM and 10 μM; “C” indicates an IC50 value between 100 nM and 1 μM; and “D” indicates an IC50 value of less than 100 nM.

pIC50 | Compound
5.00 to 6.00 | Cc1nc(-c2n[nH]c3cc(F)c(F)cc23)ccc1N [Compound 53]
6.00 to 7.00 | COc1nc(-c2c[nH]c3c(C#N)cccc23)cnc1NCC(C)(C)O [Compound 280]
6.00 to 7.00 | CC1(C)CCNc2ccc(-c3n[nH]c4ccc(F)cc34)nc21 [Compound 78]
5.00 to 6.00 | Cc1nc(-c2c[nH]c3c(C#N)cccc23)cnc1O[C@H]1CCN[C@@H]1C [Compound 285]
> 7.00 | Cc1cncc(-c2c[nH]c3c(Cl)cccc23)n1 [Compound 212]
6.00 to 7.00 | CCc1nc(-c2n[nH]c3cc(F)c(F)cc23)ccc1N [Compound 54]
5.00 to 6.00 | Cc1cccc(-c2c[nH]c3cc(C#N)ccc23)n1 [Compound 161]
< 5.00 | Cc1nc(-c2c[nH]c3c(C#N)cccc23)ccc1NCC(=O)N(C)C [Compound 197]
5.00 to 6.00 | Cc1nc(-c2c[nH]c3c(C#N)cccc23)ccc1NCCN(C)C [Compound 196]
6.00 to 7.00 | CN1C(=O)c2ccc(-c3c[nH]c4c(C(F)(F)F)cccc34)nc2C1(C)C [Compound 188]
6.00 to 7.00 | N#Cc1cccc2c(-c3cccc(N4CCC4)n3)c[nH]c12 [Compound 178]
6.00 to 7.00 | CC1(C)NC(=O)c2ccc(-c3c[nH]c4c(C#N)c(F)ccc34)nc21 [Compound 184]
6.00 to 7.00 | Cc1nc(-c2c[nH]c3c(C(F)(F)F)cccc23)cnc1N [Compound 186]
6.00 to 7.00 | Cc1nc(-c2c[nH]c3c(C#N)cccc23)cnc1N [Compound 149]
> 7.00 | c1cnc2ccc(-c3n[nH]c4ccccc34)nc2c1 [Compound 5]
5.00 to 6.00 | Cc1nc(-c2c[nH]c3c(Cl)cccc23)ccc1OC1CCNC1 (centres unmarked) [Compound 238]
6.00 to 7.00 | N#Cc1cccc2c(-c3ccc(OC4CCNC4)c(F)c3)c[nH]c12 (centres unmarked) [Compound 229]
5.00 to 6.00 | Cc1nc(-c2c[nH]c3c(C#N)cccc23)cnc1O [Compound 335]
< 5.00 | c1ccc2nc(-c3n[nH]c4cc(N5CCOCC5)ccc34)ccc2c1 [Compound 2]

pIC50 | Compound
> 7.00 | N#Cc1cccc2c(-c3ccc(N)c(C4CC4)n3)c[nH]c12 [Compound 139]
5.00 to 6.00 | Cc1nc(-c2n[nH]c3c(Cl)cccc23)ccc1OC1CCNC1 (centres unmarked) [Compound 256]
5.00 to 6.00 | CNc1ccc(-c2n[nH]c3cc(F)c(F)cc23)nc1C [Compound 94]
< 5.00 | N#Cc1cccc2c(-c3ccc4ncccc4n3)nn(C3CCCCO3)c12 (centres unmarked) [Compound 85]
< 5.00 | CC(=O)NC1CCCc2nc(-c3n[nH]c4ccccc34)ccc21 (centres unmarked) [Compound 23]
5.00 to 6.00 | N#Cc1cccc2c(-c3cnccn3)c[nH]c12 [Compound 174]
5.00 to 6.00 | Cc1nc(-c2c[nH]c3c(C#N)cccc23)cnc1OCC(C)O (centres unmarked) [Compound 341]
< 5.00 | CCOC(=O)c1coc(-c2c[nH]c3c(C)cccc23)n1 [Compound 123]
6.00 to 7.00 | CC(=O)N1C[C@@H](F)[C@H](Oc2ncc(-c3c[nH]c4c(C#N)cccc34)nc2C)C1 [Compound 272]
6.00 to 7.00 | Cc1cccc2c(-c3ccc4c(n3)C(C)(C)NC4=O)c[nH]c12 [Compound 314]
6.00 to 7.00 | Cc1cncc(-c2c[nH]c3c(C#N)cccc23)n1 [Compound 175]
< 5.00 | N#Cc1cccc2c(-c3cccc(OC4CCNC4)n3)c[nH]c12 (centres unmarked) [Compound 168]
6.00 to 7.00 | N#Cc1cccc2c(-c3ccc(N)c(OC(F)F)n3)c[nH]c12 [Compound 192]
5.00 to 6.00 | c1cnc2[nH]cc(-c3ccc(C4COC4)cn3)c2c1 [Compound 129]
6.00 to 7.00 | Cc1nc(-c2c[nH]c3c(C(F)(F)F)cccc23)ccc1N [Compound 159]
6.00 to 7.00 | N#Cc1cccc2c(-c3ccc(OC4CCNC4)c(Cl)n3)c[nH]c12 (centres unmarked) [Compound 237]
< 5.00 | CC(C)(O)c1ccc(-c2n[nH]c3cc(F)c(F)cc23)nc1 [Compound 72]
6.00 to 7.00 | CC1(C)CCNc2ccc(-c3n[nH]c4cc(F)c(F)cc34)nc21 [Compound 50]
6.00 to 7.00 | CCc1nc(-c2c[nH]c3c(C#N)cccc23)cnc1OC1CCN(C(C)=O)C1 (centres unmarked) [Compound 268]
